Experimental data taken from US12343316B2, “Cannabidiol and/or derivatives thereof for use in the treatment of mitochondrial diseases” (U[…] DE BARCELONA, priority 2019, dated 2025).

Experiments:
[1] = system: Ndufs4−/− mice; assay: Survival of Ndufs4−/− mice (mouse model of Leigh syndrome); format: in vivo
Excerpt: (§1) Two mouse lines were used in this study: (1) a validated mouse genetic model of MD (Kruse, S. E., et al. Cell Metab. 2008, 7: 312-320; Quintana, A., et al. Proc. Natl. Acad. Sci. USA. 2010, 107: 10996-11001), lacking Ndufs4 constitutively (Ndufs4^−/−, Ndufs4 KO) and wild-type (WT) littermates (Ndufs4^+/+) as controls, and (2) a conditional knockout mouse line lacking Ndufs4 selectively in GABAergic cells (Bolea et al. 2019 (https://elifesciences.org/articles/47163). For the latter, mice expressing cre-recombinase under the control of the Gad2 promoter (Quintana, A., et al. Nat. Neurosci. 2012, 15: 1547-1555) and one floxed Ndufs4 allele (Gad2^cre/+:Ndufs4^lox/+) were bred with mice carrying two floxed Ndufs4 alleles (Ndufs4^lox/lox). Out of all the possible offspring, Gad2^cre/+: Ndufs4^lox/lox mice bear Ndufs4 deficiency selectively in GABAergic neurons. Mice with Gad2^cre/+:Ndufs4^lox/+ genotype with one functional Ndufs4 allele as well as mice with the Gad2^cre/+:Ndufs4^lox/lox genotype were used as controls.
Ndufs4 encodes a protein involved in assembly, stability, and activity of complex I of the mitochondrial electron transport chain. Ndufs4^−/− mice display a progressive neurodegenerative phenotype, which resembles the human disease and includes retarded growth rate, weight loss, lethargy, loss of motor skills, and premature death.

[2] = system: Ndufs4−/− mice; assay: Clasping onset in Ndufs4−/− mice; format: in vivo, mouse; settings: CBD 100 mg/kg once daily vs vehicle-treated, p<0.05
Excerpt: as §1
Clasping behaviour was used as a sign of neurological degeneration (Johnson, S. C., et al. Science. 2013, 342: 1524-1528). Clasping consisted in an inward curling of the spine and a retraction of the forelimbs and/or hindlimbs toward the midline of the body.

[3] = system: Ndufs4−/− mice; assay: Accelerating rotarod performance in Ndufs4−/− mice; format: in vivo, mouse; settings: Ndufs4KO mice, CBD 100 mg/kg once daily; postnatal day 30, 40, 50
Excerpt: as §1
Rotarod was performed at postnatal day 30, 40, and 50. Mice were placed on a rotating drum that gradually accelerated from 4 rpm to 40 rpm over 300 sec. Each trial ended when a mouse fell off, made one complete backward revolution while hanging on, or reached 5-min. Each mouse was tested in 3 trials/day spaced 20 min apart. The results of the 3 trials were averaged.

[4] = system: Gad2:Ndufs4cKO mice; assay: Survival of Gad2:Ndufs4cKO mice (cell type-specific mouse model of Leigh syndrome); format: in vivo
Excerpt: as §1
Given the early onset severe phenotype that results in death at a median age of ˜40 days in Ndufs4^−/− mice, it is difficult to study certain clinical signs that recapitulate some symptoms of the human pathology. […]

[5] = system: Gad2:Ndufs4cKO mice; assay: Three-chamber social approach test; format: in vivo, mouse; settings: control mice, CBD 100 mg/kg twice/day
Excerpt: as §1, with “Mice with Gad2^cre/+:Ndufs4^lox/+ genotype with one functional Ndufs4 allele as well as mice with the Gad2^cre/+:Ndufs4^lox/lox genotype were used as controls.” left out
A three-chamber arena was used to assess sociability as previously described (Puighermanal et al, Front Mol Neurosci., 2017, 10:419). […] The time spent sniffing the unfamiliar mouse and the empty wire cage was manually scored. The discrimination index for sociability was calculated as follows: (time exploring unfamiliar mouse—time exploring empty wire cage)/(total exploration time)*100. […]

[6] = rodents; cited from earlier work

In the case of `C=C(C)[C@@H]1CCC(C)=C[C@H]1c1c(O)cc(CCCCC)cc1O` [CBD, (−)-trans-2-p-mentha-l,8-dien-3-yl-5-pentylresorcinol], the median survival ([1]; Ndufs4KO mice, CBD 100 mg/kg once/day intraperitoneal from postnatal day 24-30) is reported as 75.5 days, the “life span (survival)” value ([1]; Ndufs4−/− mice, CBD 100 mg/kg once daily, log-rank p<0.0001) is reported as “significantly extended the life span” and the “appearance (onset) of clasping” value [2] is reported as “significantly delayed”. The “rotarod performance (time to fall off)” value [3] was “delayed the progressive decline”, the average survival time ([4]; CBD 100 mg/kg intraperitoneal twice daily from postnatal day 35-40, p<0.0001) was 87 days and the “life span (survival)” value ([4]; CBD 100 mg/kg twice daily, log-rank p<0.0001) was “extended the life span”. For the same compound, the “sociability (social interaction)” value [5] was “no effect” and the half-life [6] was roughly 4.5 h.
